{
  "source": "paper PMC10877733",
  "about": "“Discovery and Characterization of VU0542270, the First Selective Inhibitor of Vascular Kir6.1/SUR2B KATP Channels” (Molecular Pharmacology, 2024)",
  "key": {"Kir4.2": {"target": "T1, Kir4.2 (Homo sapiens, UniProt Q99712)", "T1 construct": "expressed in transfected cells", "T1 sequence (Q99712 1-375)": "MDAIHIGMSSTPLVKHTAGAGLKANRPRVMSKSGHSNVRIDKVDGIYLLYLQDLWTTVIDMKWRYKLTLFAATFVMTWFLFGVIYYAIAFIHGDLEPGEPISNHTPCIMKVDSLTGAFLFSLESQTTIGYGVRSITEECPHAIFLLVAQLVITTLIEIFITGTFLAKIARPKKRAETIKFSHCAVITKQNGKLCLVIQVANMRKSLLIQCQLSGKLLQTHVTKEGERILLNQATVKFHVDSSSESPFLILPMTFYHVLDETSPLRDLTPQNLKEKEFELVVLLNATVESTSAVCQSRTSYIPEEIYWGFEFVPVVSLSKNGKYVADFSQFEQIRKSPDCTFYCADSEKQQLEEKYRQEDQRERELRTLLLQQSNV", "experiment": "Thallium flux selectivity assay Kir4.2", "format": "cell-based", "experimental": "Quantitative thallium flux assays of Kir6.1/SUR2B activity were performed essentially as described previously for Kir6.2/SUR1 ([Raphemot et al., 2014]; [Kharade et al., 2019]). Stable T-Rex-HEK293-Kir6.1/SUR2B cells or transiently transfected HEK293T cells were plated in polyamine-coated, clear-bottomed, black-walled 384-well plates and were cultured (37°C/5% CO2) overnight in Dulbecco’s modified Eagle’s medium (Gibco, Carlsbad, CA, 11995-065) containing 10% FBS (2 mM Penicillin-Streptomycin). The following day, cells were washed with assay buffer (i.e., Hanks’ balanced salt solution/20 mM HEPES) and loaded for 1 hour with thallium sensor dye Brilliant Thallium (Ion Bioscience, San Marcos, TX) at room temperature. Dye-loaded cells were washed with assay buffer and transferred to a Panoptic Kinetic Imaging Plate Reader (Wavefront Bioscience, Franklin, TN). Control and test compound treatments were for 4 minutes prior to adding 0.5 mM chloride-free thallium stimulus buffer (Ion Bioscience) to initiate thallium flux. […] Selectivity assays against other Kir channels were performed essentially as described previously ([Kharade et al., 2018]; [McClenahan et al., 2022])."}, "channels containing SUR1": {"tested_on": "channels containing SUR1", "experiment": "Thallium flux, Kir6.1 or Kir6.2 co-expressed with SUR1 in transfected HEK-293 cells", "format": "cell-based", "conditions": "3 µM, Fig. 4D", "text": "The pcDNA3.1-SUR2B plasmid was generously provided by Dr. Colin Nichols (Washington University). The pcDNA5/TO-Kir6.1 plasmid was synthesized by GenScript. Stably transfected tetracycline-regulated expression human embryonic kidney-293 (T-Rex-HEK293) cells expressing both plasmids were generated by cotransfecting cells with Lipofectamine LTX followed by antibiotic selection and clonal selection using the thallium flux assay described below. Monoclonal lines expressing robust pinacidil-activated thallium flux were selected for high KATP channel activity. T-Rex-HEK293 cells expressing Kir6.2/SUR1 were created as described previously ([Raphemot et al., 2014]). The cell culture media contained Dulbecco’s modified Eagle’s medium (Gibco, 11965-092) supplied with heat-inactivated FBS (bio-techne, Minneapolis, MN S11150H,10%), Blasticidine HCl (Gibco, A11139-03, 10 ug/mL), Penicillin-Streptomycin (Gibco, 15140-122, 2 mM), G418 Sulfate (CORNING, Corning, NY, 30-234-CR, 1 mg/mL), and Hygromycin B (Invitrogen, Carlsbad, CA, 10687-010, 250 ug/mL). […]\nQuantitative thallium flux assays of Kir6.1/SUR2B activity were performed essentially as described previously for Kir6.2/SUR1 ([Raphemot et al., 2014]; [Kharade et al., 2019]). […] Dye-loaded cells were washed with assay buffer and transferred to a Panoptic Kinetic Imaging Plate Reader (Wavefront Bioscience, Franklin, TN). […]"}, "[1]": {"experiment": "Brain homogenate binding by equilibrium dialysis, rat", "format": "in vitro ADME", "conditions": "read-out: Fu, brain (rat)", "experimental": "Determination of VU0542270 fu in […] from mouse and rat was conducted using the same methodology and procedure as described for plasma protein binding assay with the following modifications: 1) a final compound concentration of 1 μM was used, and 2) naïve rat brains were homogenized in DPBS (1:3 composition of brain:DPBS, w/w) using a Mini-Bead Beater machine to obtain brain homogenate.\nThe diluted fraction unbound (fu2) in brain was calculated as (analyte to IS MS peak area ratio from Trans-buffer side)/(analyte to IS MS peak area ratio from Cis-brain homogenate side). Undiluted fraction unbound for the brain was calculated using the following equation: [drawing 1]\nMean values for each species were calculated from three replicates."}},
  "data": [
    {"smiles": "Cc1nc(-c2cccs2)sc1CNC(=O)Nc1cccs1", "note": "[VU0542270]", "values": [
      {"measurement": "IC50", "setting": "Kir4.2", "result": "> 30", "unit": "µM"},
      {"measurement": "inhibition of channels containing SUR1", "setting": "channels containing SUR1", "result": "not channels containing SUR1"},
      {"measurement": "fraction unbound at 6 h, 1 µM", "setting": "[1]", "result": 0.02}
    ]}
  ]
}
